The values that follow come from US20180228778A1, “COMPOSITIONS COMPRISING S1P RECEPTOR MODULATORS” (Akaal Pharma Pty Ltd, priority 2015, published 2018).

The structures appear in SMILES notation.

In data set [1] the test system is LPS challenged macrophages (RAW cells). Kind of data set: Inhibition of pro-inflammatory cytokines and factors in LPS challenged macrophages (RAW cells). The format is cell-based. The following applies: in-vitro, 1 to 5 μM. As for the experimental part: The pro-inflammatory cytokines and factors are over expressed in inflammations, cancer and other indications. Lipopolysaccharide is well known to induce various pro-inflammatory factors in the monocytes (RAW cells) and the efficacy of compound on the LPS challenged cells was evaluated for the inhibition of tumor necrosis factor (TNFα), interleukins; IL1P, IL6, and factors such as inducible nitroxide synthase (iNOS), COX-2 and vascular endothelial growth factor (VEGF).

Data set [2] has as its system DNFB-induced delayed type hypersensitivity (DTH) in BALB/c mice. Kind of data set: Dinitroflurobenzene (DNFB)-induced delayed type hypersensitivity (DTH) in BALB/c mice. The class given is in vivo. The following applies: oral, twice daily 3 mg/Kg. The text has this:
The formulation of representative compound of formula I have shown efficacy in a delayed-type hypersensitivity (DTH) reaction model. The DTH is an expression of cell-mediated immunity and plays a major role in the pathology and chronicity of many inflammatory disorders including inflammatory skin indications. One of the most characteristic DTH phenomena is contact hypersensitivity, which is characterized by swelling and increased tissue levels of cytokines. Contact hypersensitivity (CHS) is a T cell mediated immune reaction in response to cutaneous sensitization and challenge with reactive haptens those are capable of binding directly to soluble and cell associated proteins and recognized by T cells in the context of self-MHC products. The cells that recognize antigen-protein complex in the skin are the Langerhans cells (LCs). After topical application of an allergen, Langerhans cells (LCs), the major antigen-presenting cells (APCs) for the induction of immune responses in skin, show enhanced expression of surface MHC class II molecules, and start to emigrate from the skin to regional lymph nodes where specific lymphocyte activation is thought to occur. After a second contact with the haptens, T cells are first recruited into tissues and then activated by antigen-presenting cells to produce cytokines that mediate local inflammation. Myeloperoxidase (MPO) is an enzyme exclusively present in neutrophils granules, which is commonly used as an index of granulocyte infiltration.
The effect of AKP (a compound of formula (I)) as an oral treatment was evaluated in dinitroflurobenzene (DNFB)-induced delayed type hypersensitivity (DTH) in BALB/c mice. A total of 18 female BALB/c mice were randomly assigned to 2 groups, Group 1: DTH treated with the vehicle of AKP (N=9); Group 2: DTH treated with AKP-11 twice daily dose of 3 mg/Kg (N=9). […] Ear thickness was measured with a micrometer before challenge and 24 h after challenge. Ear weight was measured 24 h after challenge. […]

For data set [3], the system named is Phorbol ester mediated irritant contact dermatitis in Swiss albino mice. Nature of the data set: Phorbol ester mediated irritant model of contact dermatitis. The class given is in vivo. The following applies: for reduction of ear swelling (inflammation): alone or in combination (Figure 3). As for the experimental part: The local application of Phorbol ester stimulates protein Kinase C (PKC), COX, LOX activity, formation of free radicals including the synthesis of mediators that regulate the production of TNF-α. The whole process mediates inflammation and hyperplasia as observed in inflammatory skin diseases such as psoriasis, eczema and others.
The topical efficacy of AKP (a compound of formula (I)) was determined in the Phorbol ester mediated irritant model of contact dermatitis. The 24 animals (Swiss albino mice) were divided in four groups (G1-4) of 6 each; G1 (control and vehicle treated), G2 (PMA challenged and vehicle treated), G3 (PMA challenged and clobetasol treated) and G4 (PMA challenged and AKP treated). The topical application of AKP (3% formulation; or as a DMSO solution) shown significant inhibition of ear inflammation (>40%; p<0.05). […] The combination reduced ear swelling (inflammation) by 43% (p[…]0.001) as shown in Figure-3 (Topical efficacy of AKP, betamethasone or combination in mice model of Phorbol ester mediated irritant contact dermatitis).

In data set [4] the test system is mild to moderate psoriasis. Nature of the data set: Phase I clinical study of topical use in healthy volunteers and psoriasis patients. The class given is in vivo, human. The following applies: daily for 28 days. As to the method: In a clinical study healthy volunteers and psoriasis patients with mild to moderate psoriasis were treated daily for 28 days.
The local psoriasis severity index (LPSI) was measured and recorded significant efficacy (>40%; p=0.0016; Figure-4). FIG. 4 illustrates the clinical effect of AKP.

Regarding `CCCOc1ccc(-c2nc(-c3ccc4oc(C(N)(CO)CO)cc4c3)no2)cc1Cl` [AKP], the “inhibition of pro-inflammatory cytokines and factors (TNFα, IL1P, IL6, iNOS, COX-2, VEGF)” value in data set [1] is reported as “markedly inhibited”. In data set [2] (24 h after DNFB challenge), the ear thickness result is recorded as “significantly reduced” and the ear weight entry is recorded as “significantly reduced”. Also, the “tissue MPO activity (right ear)” value in data set [2] (at sacrifice) is “significantly reduced”. The “count of lymphocytes in the blood” value in data set [3] (topical application) is reported as “did not alter”. The “inhibition of ear inflammation” value in data set [3] (topical, 3% formulation or DMSO solution, PMA challenged, p<0.05) is listed as > 40%. In addition, in data set [3] (topical), the “reduction of ear swelling (inflammation)” value came out at 30%. Also, in data set [4], the “AKP in blood (systemic exposure)” value was “not evident in blood” and the serious adverse events result is reported as “no serious adverse event”. Further, the “local psoriasis severity index (LPSI) efficacy” value in data set [4] (p=0.0016, Figure 4) is listed as > 40%.
For `C[C@H]1C[C@H]2[C@@H]3CCC4=CC(=O)C=C[C@]4(C)[C@@]3(F)[C@@H](O)C[C@]2(C)[C@@]1(O)C(=O)CO` [betamethasone, reference compound], in data set [3] (topical), the “reduction of ear swelling (inflammation)” value came to 30%.
